Assay results as given in patent publication US8524703B2, “Bridgehead amine ring-fused indoles and indolines” (AbbVie Inc., priority 2009, dated 2013).

Tested on: SK-N-SH human neuroblastoma cells
Test: Serum Deprivation/JC-1 Mitochondrial Membrane Potential (MMP) Assay
Assay type: cell-based
Conditions: for Emax: read-out: JC-1 max %; for EC50: serum deprivation ~18 hours, JC-1 ratio normalized to peak value for 10 μM dimebolin
Experimental: Tissue Culture: SK-N-SH human neuroblastoma cells obtained from American Type Culture Collection (Rockville, Md.) were maintained in the log phase of growth in Minimal Essential Media (MEM), 10% heat inactivated fetal calf serum and 100 units/mL antibiotic-antimycotic (AA). Cells were cultured and maintained in a humidified incubator at 37° C. under 5% CO2 and 95% air. Cells were trypsinized (0.25%) and subcultured every 3 days and used from 15-18 passages. All cell culture supplies were obtained from Invitrogen (Carlsbad, Calif.).
Serum Deprivation/JC-1 Mitochondrial Membrane Potential (MMP) Assay.
SK-N-SH cells were plated 2-3 days in advance at a concentration of 50,000 cells/well onto collagen coated black-walled 96 well plates (Becton-Dickinson, Bedford, Mass.) in a total volume of 200 μL. On day of experimental treatment, the media containing serum was aspirated from each well and rinsed once with MEM/1% AA without serum. The cells then were incubated overnight in 100 μL of MEM/1% AA (no serum) with and without dimebolin or novel chemical entities overnight for ˜18 hours. The following day, JC-1 dye (5,5′,6,6′-tetrachloro-1,1′,3,3′-tetraethylbenzimidazolcarbocyanide) was diluted 1:10 into MEM media according to the JC-1 Mitochondrial Membrane Potential Assay Kit: (Cayman Chemical Company, Ann Arbor, Mich.) and then 10 μL of the JC-1 dye solution was added to each well. The plates were centrifuged for 5 minutes at 400×g at room temperature followed by 40 minute incubation at 37° C. The plates were washed twice with 200 μL of provided Assay Buffer followed an addition of 100 μL of Assay Buffer to each well. The plates were read with an excitation and emission of 560 nm and 595 nM for red fluorescence and with an excitation and emission of […] and 535 nM for green fluorescence to determine the final JC-1 value taking the red to green fluorescence ratio. This assay is based on change in mitochondrial membrane potential (MMP) using this lipophilic cationic dye, JC-1, by monitoring the changes in the ratio of red to green fluorescence as the MMP depolarizes. This change in MMP reflects the health of the cell with healthy, viable cells have a high JC-1 ratio and high MMP whereas apoptotic, unhealthy cells have a low JC-1 ratio or low MMP.
For the ability of compounds to reverse the stress due to serum deprivation and increase the JC-1 ratio, the percent maximal intensity in JC-1 ratio was normalized to that induced by the peak value for 10 μM dimebolin and plotted against the compound concentration to calculate EC50 values and to control for plate-to-plate variability. Concentration-response data were analyzed using GraphPad Prism (San Diego, Calif.); the EC50 values were derived from a single curve fit to the mean data of n=2-3, in duplicates.
All compounds were dissolved in dimethyl sulfoxide at 10 mM stock solutions and tested at a concentration that the dimethyl sulfoxide levels never exceeded 1%.

[1] = Homo sapiens, SK-N-SH, percent maximal JC-1 ratio normalized to peak value for 10 μM dimebolin

| SMILES | Emax [1] [%] | EC50 (Homo sapiens, SK-N-SH) [µM] | JC-1 max % (percent maximal JC-1 ratio normalized to peak value for 10 μM dimebolin) [%] | EC50 [µM] |
| --- | --- | --- | --- | --- |
| Cc1ccc(/C=C\c2cccc3c4c([nH]c23)C2CCN(CC2)C4)cn1 [Example 31, 7-[(Z)-2-(6-methylpyridin-3-yl)vinyl]-3,4,5,6-tetrahydro-1H-2,5-ethanoazepino[4,3-b]indole] | 120 | 7.75 | – | – |
| C(#Cc1cccc2c3c([nH]c12)C1CCN(CC1)C3)c1ccncc1 [Example 21, 7-(pyridin-4-ylethynyl)-3,4,5,6-tetrahydro-1H-2,5-ethanoazepino[4,3-b]indole] | 104 | 3.69 | – | – |
| C(#Cc1cccc2c3c([nH]c12)C1CCN(CC1)C3)c1cccnc1 [Example 13, 7-(pyridin-3-ylethynyl)-3,4,5,6-tetrahydro-1H-2,5-ethanoazepino[4,3-b]indole] | 142 | 5.17 | – | – |
| Cc1ccc(CCc2ccc3[nH]c4c(c3c2)CN2CCC4CC2)cn1 [Example 9, 9-[2-(6-methylpyridin-3-yl)ethyl]-3,4,5,6-tetrahydro-1H-2,5-ethanoazepino[4,3-b]indole] | 110 | 3.94 | – | – |
| c1ccc(COc2cccc3c4c([nH]c23)C2CCN(CC2)C4)cc1 [Example 26, 7-(benzyloxy)-3,4,5,6-tetrahydro-1H-2,5-ethanoazepino[4,3-b]indole] | 494 | 9.81 | – | – |
| C(=C\c1cccc2c3c([nH]c12)C1CCN(CC1)C3)/CCCc1ccccc1 [Example 5, 7-[(1E)-5-phenylpent-1-enyl]-3,4,5,6-tetrahydro-1H-2,5-ethanoazepino[4,3-b]indole] | 58 | 5.27 | – | – |
| c1cc(-c2ccncc2)c2[nH]c3c(c2c1)CN1CCC3CC1 [Example 40, 7-(pyridin-4-yl)-3,4,5,6-tetrahydro-1H-2,5-ethanoazepino[4,3-b]indole] | 92 | 8.99 | – | – |
| C(=C/c1cccc2c3c([nH]c12)C1CCN(CC1)C3)/c1cncnc1 (single isomer, unassigned) [Example 30, 7-[(Z)-2-(pyrimidin-5-yl)vinyl]-3,4,5,6-tetrahydro-1H-2,5-ethanoazepino[4,3-b]indole] | 29 | > 30 | – | – |
| Cc1ccc(CCc2cccc3c4c([nH]c23)C2CCN(CC2)C4)cn1 [Example 2, 7-[2-(6-methylpyridin-3-yl)ethyl]-3,4,5,6-tetrahydro-1H-2,5-ethanoazepino[4,3-b]indole] | 170 | 5.22 | – | – |
| Cc1ccc(C#Cc2cc(F)cc3c4c([nH]c23)C2CCN(CC2)C4)cn1 [Example 24, 9-fluoro-7-[(6-methylpyridin-3-yl)ethynyl]-3,4,5,6-tetrahydro-1H-2,5-ethanoazepino[4,3-b]indole] | 156 | 5.38 | – | – |
| Cc1ccc(C#Cc2ccc3c4c([nH]c3c2)C2CCN(CC2)C4)cn1 [Example 22, 8-[(6-methylpyridin-3-yl)ethynyl]-3,4,5,6-tetrahydro-1H-2,5-ethanoazepino[4,3-b]indole] | 185 | 8.66 | – | – |
| Cc1ccc(/C=C/c2cccc3c4c([nH]c23)CN2CCC4CC2)cn1 [Example 32, 9-[(E)-2-(6-methylpyridin-3-yl)vinyl]-3,4,5,10-tetrahydro-1H-2,5-ethanoazepino[3,4-b]indole] | 199 | 3.64 | – | – |
| Fc1cccc(/C=C/c2cccc3c4c([nH]c23)C2CCN(CC2)C4)c1 [Example 15, 7-[(E)-2-(3-fluorophenyl)vinyl]-3,4,5,6-tetrahydro-1H-2,5-ethanoazepino[4,3-b]indole] | 44 | > 30 | – | – |
| Cc1ccc(C#Cc2cccc3[nH]c4c(c23)CN2CCC4CC2)cn1 [Example 23, 10-[(6-methylpyridin-3-yl)ethynyl]-3,4,5,6-tetrahydro-1H-2,5-ethanoazepino[4,3-b]indole] | 140 | 7.27 | – | – |
| Cc1ccc(/C=C/c2cccc3c2NC2C4CCN(CC4)CC32)cn1 (stereo not drawn) [Example 36, (cis)-7-[(E)-2-(6-methylpyridin-3-yl)vinyl]-3,4,5,5a,6,10b-hexahydro-1H-2,5-ethanoazepino[4,3-b]indole] | – | – | 196 | 6.89 |
| Fc1cccc(CCc2cccc3c4c([nH]c23)C2CCN(CC2)C4)c1 [Example 16, 7-[2-(3-fluorophenyl)ethyl]-3,4,5,6-tetrahydro-1H-2,5-ethanoazepino[4,3-b]indole] | 49 | > 30 | – | – |
| Fc1ccc(/C=C/c2cccc3c4c([nH]c23)C2CCN(CC2)C4)c(F)c1 [Example 14, 7-[(E)-2-(2,4-difluorophenyl)vinyl]-3,4,5,6-tetrahydro-1H-2,5-ethanoazepino[4,3-b]indole] | 39 | > 30 | – | – |
| C(=C\c1cccc2c3c([nH]c12)C1CCN(CC1)C3)/c1ccccn1 [Example 12, 7-[(E)-2-pyridin-2-ylvinyl]-3,4,5,6-tetrahydro-1H-2,5-ethanoazepino[4,3-b]indole] | 192 | 3.56 | – | – |
| FC(F)(F)Oc1ccc(C#Cc2cccc3c4c([nH]c23)C2CCN(CC2)C4)cc1 [Example 20, 7-{[4-(trifluoromethoxy)phenyl]ethynyl}-3,4,5,6-tetrahydro-1H-2,5-ethanoazepino[4,3-b]indole] | 47 | > 30 | – | – |
| c1cc(-c2cncnc2)c2[nH]c3c(c2c1)CN1CCC3CC1 [Example 38, 7-(pyrimidin-5-yl)-3,4,5,6-tetrahydro-1H-2,5-ethanoazepino[4,3-b]indole] | 76 | 10.5 | – | – |
| Cc1ccc(-c2cccc3c4c([nH]c23)C2CCN(CC2)C4)cn1 [Example 37, 7-(6-methylpyridin-3-yl)-3,4,5,6-tetrahydro-1H-2,5-ethanoazepino[4,3-b]indole] | 179 | 8.66 | – | – |
| c1ccc2ncc(-c3cccc4c5c([nH]c34)C3CCN(CC3)C5)cc2c1 [Example 41, 7-(quinolin-3-yl)-3,4,5,6-tetrahydro-1H-2,5-ethanoazepino[4,3-b]indole] | 171 | 3.68 | – | – |
| C(=C\c1cccc2c3c([nH]c12)C1CCN(CC1)C3)/c1cccnc1 [Example 34, 7-[(E)-2-pyridin-3-ylvinyl]-3,4,5,6-tetrahydro-1H-2,5-ethanoazepino[4,3-b]indole] | 109 | 6.3 | – | – |
| c1ccc(CCCCCc2cccc3c4c([nH]c23)C2CCN(CC2)C4)cc1 [Example 7, 7-(5-phenylpentyl)-3,4,5,6-tetrahydro-1H-2,5-ethanoazepino[4,3-b]indole] | 62 | 1.43 | – | – |
| C(=C\c1cccc2c3c([nH]c12)C1CCN(CC1)C3)/c1ccncc1 [Example 11, 7-[(E)-2-pyridin-4-ylvinyl]-3,4,5,6-tetrahydro-1H-2,5-ethanoazepino[4,3-b]indole] | 171 | 6.73 | – | – |
| Cc1ccc(/C=C/c2cccc3c4c([nH]c23)C2CCCN(C4)C2)cn1 (centres unmarked) [Example 35, 8-[(E)-2-(6-methylpyridin-3-yl)vinyl]-1,3,4,5,6,7-hexahydro-2,6-methanoazocino[4,3-b]indole] | 213 | 7.28 | – | – |
| c1cncc(-c2cccc3c4c([nH]c23)C2CCN(CC2)C4)c1 [Example 39, 7-(pyridin-3-yl)-3,4,5,6-tetrahydro-1H-2,5-ethanoazepino[4,3-b]indole] | 113 | 10.3 | – | – |
| Fc1ccc(/C=C/c2cccc3c4c([nH]c23)C2CCN(CC2)C4)cc1 [Example 10, 7-[(E)-2-(4-fluorophenyl)vinyl]-3,4,5,6-tetrahydro-1H-2,5-ethanoazepino[4,3-b]indole] | 84 | 4.74 | – | – |
